This passage reports IC50 results from patent US8207154B2, “Catatonic bacteriochlorophyll derivatives” (Yeda Research and Development Co., Ltd., priority 2005, dated 2012).

Where two headings read alike, the source gives them in different places.

This experiment deals with H5V cells. Briefly: Phototoxicity assay (PDT efficacy at two incubation times), neutral red survival. Conditions: then 10 min illumination, 12 J/cm^2. Type of experiment: cell-based, mouse. How it is done:
H5V cells (40×10^3/well) were cultured in 96-well plates for 24 h to ˜80% confluence. To determine phototoxicity, the culture medium was replaced with 100 μl/well medium, in the absence or presence of 10^−8 to 10^−6 M sensitizer, and incubated in the dark for 15 min or 3 h in the culture incubator. The plates (PDT group) were then placed in the light field at room temperature and illuminated from the bottom for 10 min (800>λ>650 nm, 12 J/cm^2). After illumination, the medium was changed to fresh culture medium. The cultures were then placed in the culture incubator and cell survival was determined 24 h later, using the neutral red survival assay described below.
Following 24 h post PDT the culture medium in the wells was replaced with 100 μl fresh medium containing 40 μg/ml neutral red. The plate was incubated for 1.5 h in a dark culture incubator. The medium was aspirated and the cells washed with 100 μl of solution containing 1% CaCl2 and 0.5% formaldehyde, which removes the unincorporated dye and fixes the cells to the substratum. The dye was then extracted from the cells into the supernatant upon addition of 100 μl 1% glacial acetic acid in 50% ethanol. After 1-2 min at room temperature, the optical density of the wells was determined in a microplate spectrophotometer using a 570 nm filter. After subtraction of assay blanks, net optical density was computed as the average value of triplicate determinations. Cell survival was calculated as the percent of the dye accumulated in the untreated control. To determine cell survival data was plotted against sensitizer concentration. These curves were then used to calculated LD50 values.
Following synthesis, the compounds described in the Examples 23 to 75 above were purified, divided into equal aliquots and lyophilized for storage (desiccated at −20° C.). The exact material content was determined by HPLC-diode array detection, and the PDT efficacy was evaluated at two incubation times as described in the experimental section.

[1] abbreviates: 15 min incubation in the dark, read-out: IC50 15 min.
[2] abbreviates: 3 h incubation in the dark, read-out: IC50 3 hours.

A word on the IC50: it is the concentration that inhibits the measured activity by half. With `CC(=O)O.CC(=O)O.CC(=O)O.CC[C@H]1C2=NC(=Cc3c(C(C)=O)c(C)c4[n]3[Pd][n]3c(c(C)c(C(=O)NCCN(CCN)CCN)c3=C(CC(=O)OC)C3=NC(=C4)[C@@H](C)[C@@H]3CCC(=O)NCC(O)CO)=C2)[C@@H]1C` (some centres unmarked) [Compound 59, Palladium 3^1-oxo-15-methoxycarbonylmethyl-Rhodobacteriochlorin-13^1-([2-bis(2-aminoethyl)amine]ethyl)amide-17^3-(2,3-dihydroxypropyl)amide], the IC50 by setting is: under setting [1], 450 nM; under setting [2], 190 nM.

Turning to `CC[C@H]1C2=NC(=Cc3c(C(C)=O)c(C)c4[n]3[Pd][n]3c(c(C)c(C(=O)NCCN(C)C)c3=C(CC(=O)OC)C3=NC(=C4)[C@@H](C)[C@@H]3CCC(=O)NCCN(C)C)=C2)[C@@H]1C` [Compound 36, Palladium 3^1-oxo-15-methoxycarbonylmethyl-Rhodobacteriochlorin-13^1, 17^3-di(2-N^2-dimethylaminoethyl)amide], the IC50 turned out to be 370 nM under setting [1] and 150 nM under setting [2].

For the molecule `CC[C@H]1C2=NC(=Cc3c(C(C)=O)c(C)c4[n]3[Pd][n]3c(c(C)c(C(=O)NCCN)c3=C(CC(=O)OC)C3=NC(=C4)[C@@H](C)[C@@H]3CCC(=O)NCCN)=C2)[C@@H]1C` [Compound 10, Palladium 3^1-oxo-15-methoxycarbonylmethyl-Rhodobacteriochlorin-13^1, 17^3-di(2-aminoethyl)amide], the half-inhibitory concentration (IC50) under setting [1] came to 740 nM and the IC50 under setting [2] was found to be 240 nM.

Regarding “Palladium 3^1-oxo-15-methoxycarbonylmethyl-Rhodobacteriochlorin-13^1-(2-N^2-dimethylaminoethyl)amide-17^3-(glycosyl) amide [Compound 75]”, the IC50 was 500 nM under setting [1] and 160 nM under setting [2].

With `CCC1C2=Cc3c(C)c(C(=O)NCCN)c4[n]3[Pd][n]3c(c(C)c(C(C)=O)c3=CC(=N2)C1C)=CC1=NC(=C4CC(=O)OC)C(CCC(=O)NCC(O)CO)C1C` (centres unmarked) [Compound 48, Palladium 3^1-oxo-15-methoxycarbonylmethyl-Rhodobacteriochlorin-13^1-(2-aminoethyl)amide-17^3-(2,3-dihydroxypropyl) amide], the IC50 was determined as 600 nM under setting [1] and 200 nM under setting [2].

Turning to “Palladium 3^1-oxo-15-methoxycarbonylmethyl-Rhodobacteriochlorin-13^1-(2-N-dimethylaminoethyl)amide-17^3-(2-hydroxy ethyl)amide [Compound 65]”, the IC50 was 430 nM under setting [1] and 220 nM under setting [2].

Regarding `CC[C@H]1C2=NC(=Cc3c(C(C)=O)c(C)c4[n]3[Pd][n]3c(c(C)c(C(=O)NCC(O)CO)c3=C(CC(=O)OC)C3=NC(=C4)[C@@H](C)[C@@H]3CCC(=O)NCCNCCN)=C2)[C@@H]1C` (some centres unmarked) [Compound 51, Palladium 3^1-oxo-15-methoxycarbonylmethyl-Rhodobacteriochlorin-13^1-(2,3-dihydroxypropyl)amide-17^3-(2-[(2-aminoethyl)amino]ethyl)amide], the IC50 under setting [1] was found to be 780 nM and the IC50 under setting [2] was determined as 400 nM.

As for `CC[C@H]1C2=NC(=Cc3c(C(C)=O)c(C)c4[n]3[Pd][n]3c(c(C)c(C(=O)NCC(O)CO)c3=C(CC(=O)OC)C3=NC(=C4)[C@@H](C)[C@@H]3CCC(=O)NCCNc3ccccn3)=C2)[C@@H]1C` (some centres unmarked) [Compound 56, Palladium 3^1-oxo-15-methoxycarbonylmethyl-Rhodobacteriochlorin-13^1-(2,3-dihydroxypropyl)amide-17^3-(2-N-(2′-pyridyl)aminoethyl)amide], the IC50 came out at 790 nM under setting [1] and 320 nM under setting [2].

As to `CC[C@H]1C2=NC(=Cc3c(C(C)=O)c(C)c4[n]3[Pd][n]3c(c(C)c(C(=O)NCCNCCN)c3=C(CC(=O)OC)C3=NC(=C4)[C@@H](C)[C@@H]3CCC(=O)O)=C2)[C@@H]1C` [Compound 27, Palladium 3^1-oxo-15-methoxycarbonylmethyl-Rhodobacteriochlorin-13^1-(2-[(2-aminoethyl)amino]ethyl)amide], the IC50 is, setting by setting: under setting [1], 1500 nM; under setting [2], 450 nM.

For `CC(=O)O.CCNCCNC(=O)c1c(C)c2[n]3c1=C(CC(=O)OC)C1=NC(=Cc4c(C)c(C(C)=O)c([n]4[Pd]3)C=C3N=C(C=2)[C@H](CC)[C@H]3C)[C@@H](C)[C@@H]1CCC(=O)NCC(O)CO` (some centres unmarked) [Compound 63, Palladium 3^1-oxo-15-methoxycarbonylmethyl-Rhodobacteriochlorin-13^1-(2-N-ethylaminoethyl)amide-17^3-(2,3-dihydroxypropyl)amide], the half-maximal inhibitory concentration (IC50) came to 660 nM under setting [1] and 210 nM under setting [2].

For `CC[C@H]1C2=NC(=Cc3c(C(C)=O)c(C)c4[n]3[Pd][n]3c(c(C)c(C(=O)NCC(O)CO)c3=C(CC(=O)OC)C3=NC(=C4)[C@@H](C)[C@@H]3CCC(=O)NCCN(CCN)CCN)=C2)[C@@H]1C` (some centres unmarked) [Compound 58, Palladium 3^1-oxo-15-methoxycarbonylmethyl-Rhodobacteriochlorin-13^1-(2,3-dihydroxypropyl)amide-17^3-([2-bis(2-aminoethyl)amino]ethyl)amide], the IC50 came out at 640 nM under setting [1] and 370 nM under setting [2].

For the molecule `CC[C@H]1C2=NC(=Cc3c(C(C)=O)c(C)c4[n]3[Pd][n]3c(c(C)c(C(=O)NCCCCN)c3=C(CC(=O)OC)C3=NC(=C4)[C@@H](C)[C@@H]3CCC(=O)NCCCCN)=C2)[C@@H]1C` [Compound 35, Palladium 3^1-oxo-15-methoxycarbonylmethyl-Rhodobacteriochlorin-13^1, 17^3-di(4-aminobutyl)amide], the IC50 was 1230 nM under setting [1] and 210 nM under setting [2].

In the case of `CC(=O)O.CC[C@H]1C2=NC(=Cc3c(C(C)=O)c(C)c4[n]3[Pd][n]3c(c(C)c(C(=O)NCCCNC)c3=C(CC(=O)OC)C3=NC(=C4)[C@@H](C)[C@@H]3CCC(=O)NCC(O)CO)=C2)[C@@H]1C` (some centres unmarked) [Compound 64, Palladium 3^1-oxo-15-methoxycarbonylmethyl-Rhodobacteriochlorin-13^1-(3-N-methylaminopropyl)amide-17^3-(2,3-dihydroxypropyl)amide], the IC50 runs as follows: under setting [1], 560 nM; under setting [2], 170 nM.

Consider `CC[C@H]1C2=NC(=Cc3c(C(C)=O)c(C)c4[n]3[Pd][n]3c(c(C)c(C(=O)NCC(O)CO)c3=C(CC(=O)OC)C3=NC(=C4)[C@@H](C)[C@@H]3CCC(=O)NCCN3CCNCC3)=C2)[C@@H]1C` (some centres unmarked) [Compound 54, Palladium 3^1-oxo-15-methoxycarbonylmethyl-Rhodobacteriochlorin-13^1-(2,3-dihydroxypropyl)amide-17^3-(2-piperazino-N-ethyl)amide], for which the IC50 under setting [1] came to 750 nM and the IC50 under setting [2] is 270 nM.

For `CC[C@H]1C2=NC(=Cc3c(C(C)=O)c(C)c4[n]3[Pd][n]3c(c(C)c(C(=O)NCCCN(C)C)c3=C(CC(=O)OC)C3=NC(=C4)[C@@H](C)[C@@H]3CCC(=O)NCCCN(C)C)=C2)[C@@H]1C` [Compound 37, Palladium 3^1-oxo-15-methoxycarbonylmethyl-Rhodobacteriochlorin-13^1, 17^3-di(3-N^2-dimethylaminopropyl)amide], the IC50 is, setting by setting: under setting [1], 750 nM; under setting [2], 210 nM.

Consider “Palladium 3^1-oxo-15-methoxycarbonylmethyl-Rhodobacteriochlorin-13^1-(2-N^3-trimethylammoniumethyl)amide acetate (salt) [Compound 24]”, for which the IC50 turned out to be 2400 nM under setting [1] and 1200 nM under setting [2].
